# Test results as given in patent US20090258888A1, “Pyrimidine Derivatives” (Bayer Pharmaceuticals Corporation, priority 2005, published 2009).
# Where a name gives a salt, the structure may show the parent alone. Read-outs that look alike come from different tables or passages of the source.
# Tested on: HCT116 cells
# Assay: HCT116 cytotoxic activity assay
# Format: cell-based
# Details: Homo sapiens, HCT-116, 72 h with compound, Alamar Blue readout
# [1] = read-out: IC50 in the HCT116 cytotoxic activity assay
# [2] = read-out: IC50 in the HCT116 cytotoxic activity assay (upper bound of the class >500 nM)
# Protocol: Human tumor cells, e.g., HCT116 cells, are seeded in a 96-well plate at 3.0×10^3 cells/well and grown in 100 μl of RPMI complete media (Invitrogen Corporation, Grand Island, N.Y.) containing 10% fetal bovine serum (Hyclone, Logan, Utah) and 10 mM HEPES and at 37° C. for 16 h in an incubator with 5% CO2. To each well, 50 μl of additional growth media containing 20 μM to 60 nM concentrations of compound with 0.2% DMSO is added. Cells are grown for another 72 h at 37° C. 20 μl of Alamar Blue (Trek Diagnostic Systems, Inc., Cleveland, Ohio) reagent is added to each well and incubated for 4 h at 37° C. Plates are read in a SpectraMax Gemini (Molecular Devices, CA) with 544 nm excitation and 590 nm emission wavelength. IC50 values are determined by linear regression analysis of log drug concentration versus percent inhibition.
smiles,measurement,setting,value
"C=C(OCC)c1cc(Nc2ccc(Oc3ccnc(C(F)(F)F)c3)cc2)nc(N)n1 [Example 1, 6-(1-ethoxyvinyl)-N^4-(4-{[2-(trifluoromethyl)pyridin-4-yl]oxy}phenyl)pyrimidine-2,4-diamine]",IC50,[1],> 500 nM
same,IC50,[2],≤ 10000 nM
"CC(O)c1cc(Nc2ccc(Oc3ccnc(C(F)(F)F)c3)cc2)nc(N)n1 (stereo not drawn) [Example 2, 1-{2-amino-6-[(4-{[2-(trifluoromethyl)pyridin-4-yl]ox-}phenyl)amino]pyrimidin-4-yl}ethanol]",IC50,[1],> 500 nM
same,IC50,[2],≤ 10000 nM
"N#Cc1cc(Oc2ccc(Nc3cc(/C=C/c4ccc(F)cc4)nc(N)n3)cc2)ccn1 [Example 3, 4-[4-({2-amino-6-[(E)-2-(4-fluorophenyl)vinyl]pyrimidin-4-yl}amino)phenoxy]pyridine-2-carbonitrile]",IC50,[1],≤ 500 nM
"Nc1nc(/C=C/c2ccc(F)cc2)cc(Nc2ccc(Oc3ccnc(C(F)(F)F)c3)cc2)n1 [Example 5, 6-[(E)-2-(4-fluorophenyl)vinyl]-N^4-(4-{[2-(trifluoromethyl)pyridin-4-yl]oxy}phenyl)pyrimidine-2,4-diamine]",IC50,[1],≤ 500 nM
"Nc1nc(/C=C/CCO)cc(Nc2ccc(Oc3ccnc(C(F)(F)F)c3)cc2)n1 [Example 8, (3E)-4-[2-amino-6-[(4-{[2-(trifluoromethyl)pyridin-4-yl]oxy}phenyl)amino]pyrimidin-4-yl]but-3-en-1-ol]",IC50,[1],≤ 500 nM
"NCCCc1cc(Nc2ccc(Oc3ccnc(C(F)(F)F)c3)cc2)nc(N)n1 [Example 14, 6-(3-aminopropyl)-N^4-(4-{[2-(trifluoromethyl)pyridin-4-yl]oxy}phenyl)pyrimidine-2,4-diamine hydrochloride]",IC50,[1],> 500 nM
same,IC50,[2],≤ 10000 nM
"Nc1nc(CCCCO)cc(Nc2ccc(Oc3ccnc(C(F)(F)F)c3)cc2)n1 [Example 15, 4-{2-amino-6-[(4-{[2-(trifluoromethyl)pyridin-4-yl]oxy}phenyl)amino]pyrimidin-4-yl}butan-1-ol]",IC50,[1],≤ 500 nM
"Nc1nc(CCCO)cc(Nc2ccc(Oc3ccnc(C(F)(F)F)c3)cc2)n1 [Example 16, 4-{2-amino-6-[(4-{[2-(trifluoromethyl)pyridin-4-yl]oxy}phenyl)amino]pyrimidin-4-yl}propan-1-ol]",IC50,[1],≤ 500 nM
"Nc1nc(CCC(O)CO)cc(Nc2ccc(Oc3ccnc(C(F)(F)F)c3)cc2)n1 (stereo not drawn) [Example 17, 4-{2-amino-6-[(4-{[2-(trifluoromethyl)pyridin-4-yl]oxy}phenyl)amino]pyrimidin-4-yl}butane-1,2-diol]",IC50,[1],> 500 nM
same,IC50,[2],≤ 10000 nM
"Nc1nc(C#Cc2ccc(F)cc2)cc(Nc2ccc(Oc3ccnc(C(F)(F)F)c3)cc2)n1 [Example 22, 6-[(4-fluorophenyl)ethynyl]-N^4-(4-{[2-(trifluoromethyl)pyridin-4-yl]oxy}phenyl)pyrimidine-2,4-diamine]",IC50,[1],≤ 500 nM
"Nc1nc(CCc2ccc(F)cc2)cc(Nc2ccc(Oc3ccnc(C(F)(F)F)c3)cc2)n1 [Example 29, 6-[2-(4-fluorophenyl)ethyl]-N^4-(4-{[2-(trifluoromethyl)pyridin-4-yl]oxy}phenyl)pyrimidine-2,4-diamine]",IC50,[1],≤ 500 nM
"COc1cccc(CCc2cc(Nc3ccc(Oc4ccnc(C(F)(F)F)c4)cc3)nc(N)n2)c1 [Example 31, 6-[2-(3-methoxyphenyl)ethyl]-N4-(4-{[2-(trifluoromethyl)pyridin-4-yl]oxy}phenyl)pyrimidine-2,4-diamine]",IC50,[1],≤ 500 nM
"Nc1nc(CCc2cccc(O)c2)cc(Nc2ccc(Oc3ccnc(C(F)(F)F)c3)cc2)n1 [Example 35, 3-(2-{2-amino-6-[(4-{[2-(trifluoromethyl)pyridin-4-yl]oxy}phenyl)-amino]pyrimidin-4-yl}ethyl)phenol]",IC50,[1],> 500 nM
same,IC50,[2],≤ 10000 nM
"Nc1ccc(/C=C/c2cc(Nc3ccc(Oc4ccnc(C(F)(F)F)c4)cc3)nc(N)n2)cc1 [Example 39A, 6-[(E)-2-(4-aminophenyl)vinyl]-N^4-(4-{[2-(trifluoromethyl)pyridin-4-yl]oxy}phenyl)pyrimidine-2,4-diamine trifluoroacetate]",IC50,[1],> 500 nM
same,IC50,[2],≤ 10000 nM
"Nc1ccc(/C=C\c2cc(Nc3ccc(Oc4ccnc(C(F)(F)F)c4)cc3)nc(N)n2)cc1 [Example 39B, 6-[(Z)-2-(4-aminophenyl)vinyl]-N^4-(4-{[2-(trifluoromethyl)pyridin-4-yl]oxy}phenyl)pyrimidine-2,4-diamine trifluoroacetate]",IC50,[1],> 500 nM
same,IC50,[2],≤ 10000 nM
"Nc1ccc(CCc2cc(Nc3ccc(Oc4ccnc(C(F)(F)F)c4)cc3)nc(N)n2)cc1 [Example 40, 6-[2-(4-aminophenyl)ethyl]-N^4-(4-{[2-(trifluoromethyl)pyridin-4-yl]oxy}phenyl)pyrimidine-2,4-diamine trifluoroacetate]",IC50,[1],≤ 500 nM
"Cc1cc(Oc2ccc(Nc3cc(/C=C/c4ccccc4)nc(N)n3)cc2)ccn1 [Example 41, N^4-{4-[(2-methylpyridin-4-yl)oxy]phenyl}-6-[(E)-2-phenylvinyl]-pyrimidine-2,4-diamine]",IC50,[1],≤ 500 nM
